{
  "source": "patent US12642808B2",
  "about": "“Methods of inhibiting Klebsiella pneumoniae carbapenemase-2” (priority 2023, dated 2026)",
  "key": {"[1]": {"test_system": "KPC-74T", "experiment": "Time sterilization (time-killing) curve", "type": "cell-based, Escherichia coli", "description": "(§1) KPC-74T, carrying Escherichia coli containing KPC-2 plasmid, constructed by the laboratory; Hvkp, obtained through laboratory isolation; AN2718 purchased from Target Mol Technology Co., Ltd; BBLTM Mueller Hinton II Broth was purchased from BD Company in the United States; Meropenem was purchased from Meilun Biotechnology Co., Ltd; LB Broth was purchased from Qingdao High tech Industrial Park Haibo Biotechnology Co., Ltd; Enzyme marker (UV1900i, Shimadzu company);\nInoculate overnight cultured bacterial KPC-74T in a 1:10000 ratio onto MHB medium and incubate at 225 rpm at 37° C. for 2 hours (early exponential growth phase) or 5 hours (late exponential growth phase). After incubation, add the corresponding concentration of AN2718 or Meropenem solution and incubate it at 37° C. and 225 rpm. Set the time point to 0, 1, 3, 5, 7, and 24 hours. At each time point, absorb 100 μL bacterial solution, centrifuged at 10000 g rotating speed for 1 min, resuspended with PBS, diluted in ten fold gradient, and absorbed 10 μL of each gradient drops onto MHA plate. Place the plates in a 37° C. incubator for 24 hours and remove them. Count each plate and calculate the total bacterial count. Repeat the experiment three times."}, "[2]": {"test_system": "KPC-74T", "experiment": "Chessboard minimum inhibitory concentration determination", "type": "cell-based, Escherichia coli", "settings": "for MIC: Escherichia coli; for MIC value decreased: combined use of the two drugs versus alone", "description": "as §1\nThis study referenced the standards of the Clinical and Laboratory Standards Institute (CLSI) in the United States and the laboratory's previous improvement methods and measured partial inhibitory concentrations through a chessboard test. Firstly, KPC-74T was activated, inoculated on Lysogeny broth, and cultured overnight at 37° C. Add 100 μL MHB medium to each well in a sterile 96 well plate; Then add AN2718 solution 100 μL to the first line and perform gradient dilution along the vertical axis. Then, add Meropenem solution to the first column and dilute it in a gradient along the abscissa. Finally, in addition to the negative control, add 100 μL of bacterial suspension ≈1×10^6 CFUs mL^−1. After completing the above operations, place the 96 well plate in a 37° C. constant temperature incubator and incubate for 18 hours. Observe the bacterial solution of each well under appropriate light, and observe the drug concentration corresponding to the complete absence of bacterial growth wells, which is MIC. Determine synergistic effects by calculating FIC. FIC can be calculated according to formula (1): […]\nMICa is a separate MIC of compound a; MICab is the MIC of compound a combined with compound b; MICb is a separate MIC of compound b; MICba is the MIC of compound b combined with compound a; FICa is the FIC of compound a; FICb is the FIC of compound b. According to the standard definition, FICI≤0.5 is defined as synergy; 0.5<FICI≤1 is defined as an additive; […] is defined as no difference; FICI>4 is defined as an antagonistic effect."}, "[3]": {"test_system": "Hvkp2 strain", "experiment": "Treatment of mice infected with Hvkp2 strain", "type": "in vivo, ICR mice", "settings": "monotherapy 16 mg/kg; for survival rate: after 24 hours of Hvkp2 infection, mice", "method": "The experiment was conducted on mice infected with Hvkp2 strain for treatment. A total of 35 male ICR mice of SPF grade at four weeks old were selected and divided into seven groups. The […] were set as the saline control group, AN2718 monotherapy group (16 mg/kg), Meropenem monotherapy group (16 mg/kg), AN2718/Meropenem combination group 1 (8 mg/kg+8 mg/kg), AN2718/Meropenem combination group 2 (8 mg/kg+16 mg/kg), AN2718/Meropenem combination group 3 (16 mg/kg+8 mg/kg) and AN2718/Meropenem combination group 4 ([…]), respectively. First, incubate Hvkp2 overnight at 37° C., activate it, and resuspend it with physiological saline. Adjust the bacterial concentration to approximately 1×10^6 CFU/mL, spare. […]. Inject saline or medication 1 hours after infection. After 12 hours, the second dose of medication was administered for treatment, with a total of five injections and a time interval of 12 hours between each injection. Observe and count the survival status of each group of mice during the experiment.\nThis experiment used SPSS 20.0 software to statistically process and analyze the data represented by (X±SD). Multiple comparisons and one-way ANOVA were used to analyze and compare the data of each group. (P<0.05 indicates a significant difference, and P<0.01 indicates a highly significant difference)."}, "[4]": {"molecular_target": "KPC-93 (Klebsiella pneumoniae, UniProt Q9F663)", "sequence (Q9F663 25-293 limits assumed)": "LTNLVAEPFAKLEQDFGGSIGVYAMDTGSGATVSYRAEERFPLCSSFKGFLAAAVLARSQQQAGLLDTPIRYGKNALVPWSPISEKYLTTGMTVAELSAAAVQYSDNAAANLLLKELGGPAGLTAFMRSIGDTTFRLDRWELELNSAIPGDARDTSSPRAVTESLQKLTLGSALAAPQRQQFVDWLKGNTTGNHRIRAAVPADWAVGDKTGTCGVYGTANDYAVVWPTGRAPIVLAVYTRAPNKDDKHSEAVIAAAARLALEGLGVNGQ", "experiment": "Enzyme activity determination (nitrocefin hydrolysis)", "type": "biochemical", "settings": "read-out: semi-inhibitory concentration IC50 for KPC-93"}, "[5]": {"molecular_target": "KPC-41 (Klebsiella pneumoniae, UniProt Q9F663)", "sequence (Q9F663 1-268, added parts left off, change not shown, form open)": "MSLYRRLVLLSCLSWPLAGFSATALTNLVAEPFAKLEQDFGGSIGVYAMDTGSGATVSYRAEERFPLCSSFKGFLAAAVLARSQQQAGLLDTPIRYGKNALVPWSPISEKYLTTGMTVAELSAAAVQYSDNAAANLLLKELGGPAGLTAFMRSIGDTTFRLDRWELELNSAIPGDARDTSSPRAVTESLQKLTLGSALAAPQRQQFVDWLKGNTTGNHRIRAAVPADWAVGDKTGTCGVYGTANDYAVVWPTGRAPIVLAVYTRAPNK", "experiment": "Enzyme activity determination (nitrocefin hydrolysis)", "type": "biochemical", "settings": "read-out: semi-inhibitory concentration IC50 on KPC-41"}, "[6]": {"molecular_target": "KPC-2 enzyme (Klebsiella pneumoniae, UniProt Q9F663)", "sequence (Q9F663 25-293 limits assumed)": "as the sequence (Q9F663 25-293 limits assumed) above", "experiment": "Enzyme activity determination (nitrocefin hydrolysis)", "type": "biochemical", "method": "Enzyme activity was measured using a Shimadzu UV-1900i spectrophotometer in 50 mM phosphate buffer (pH 7.0) to measure the inhibitory effect. The total enzyme activity reaction system is 500 μL. The reaction temperature was set to 37° C., and 0.3 nM KPC-2 enzyme was pre-incubated with different concentrations of AN2718 in phosphate buffer (pH 7.0) for 5 minutes before adding 60 μL nitrocefin. Measure the hydrolysis inhibition effect of AN2718 on nitrocefin by detect change of absorbance. The 50% inhibition concentration is determined by the inhibition curve of the control activity percentage and inhibitor concentration. Repeat the experiment three times."}},
  "note": "Where two headings read alike, the source gives them in different places.",
  "data": [
    {"smiles": "OB1OCc2cc(Cl)ccc21", "note": "[AN2718, 5-chloro-1,3-dihydro-1-hydroxy-2,1-benzoxaborole]", "values": [
      {"measurement": "effect on the growth of KPC-74T", "setting": "[1]; AN2718 single use, up to 160 μM (26.88 μg/mL), within 24 hours", "value": "has no effect on the growth of KPC-74T"},
      {"measurement": "MIC", "setting": "[2]; 18 h, read-out: AN2718 S-MIC", "value": 13.4, "unit": "µg/mL"},
      {"measurement": "MIC value decreased", "setting": "[2]; KPC-74T", "value": "four"},
      {"measurement": "survival rate", "setting": "[3]", "value": 40, "unit": "%"},
      {"measurement": "survival rate versus Meropenem group", "setting": "[3]; between 36h and 132h, mice infected with Hvkp2", "value": "significantly higher"},
      {"measurement": "IC50", "setting": "[4]", "value": 116, "unit": "nM"},
      {"measurement": "IC50", "setting": "[5]", "value": 370000, "unit": "nM"},
      {"measurement": "IC50", "setting": "[6]", "value": 499, "unit": "nM"}
    ]},
    {"smiles": "C[C@@H](O)[C@H]1C(=O)N2C(C(=O)O)=C(S[C@@H]3CN[C@H](C(=O)N(C)C)C3)[C@H](C)[C@H]12", "note": "[Meropenem]", "values": [
      {"measurement": "killing of bacteria within 24 h", "setting": "[1]; Meropenem 4 μg/mL and 8 μg/mL with AN2718 40 μM", "value": "could not kill all bacteria"},
      {"measurement": "killing of bacteria within 24 h", "setting": "[1]; Meropenem 4 μg/mL with AN2718 80 μM", "value": "can kill most of the bacteria"},
      {"measurement": "killing of bacteria within 24 h", "setting": "[1]; Meropenem 4 μg/mL with AN2718 160 μM", "value": "can kill all bacteria"},
      {"measurement": "killing of bacteria within 24 h", "setting": "[1]; Meropenem 128 μg/mL with AN2718 20 μM", "value": "all bacteria can be killed"},
      {"measurement": "number of colonies versus control group", "setting": "[1]; Meropenem alone 2 μg/mL˜64 μg/mL, at 24 hours", "value": "no significant difference"},
      {"measurement": "effect on the growth of KPC-74T", "setting": "[1]; Meropenem alone 2 μg/mL˜64 μg/mL, first 5 hours", "value": "a certain inhibitory effect"},
      {"measurement": "effect on the growth of KPC-74T", "setting": "[1]; Meropenem alone 128 μg/mL", "value": "significant inhibitory effect"},
      {"measurement": "killing of bacteria within 24 h", "setting": "[1]; Meropenem alone 128 μg/mL", "value": "still cannot kill all bacteria"},
      {"measurement": "killing of bacteria within 24 h", "setting": "[1]; Meropenem remaining concentrations (above 4 μg/mL) with AN2718 80 μM", "value": "can still kill all the bacteria"},
      {"measurement": "killing of bacteria within 24 h", "setting": "[1]; Meropenem rest concentrations (above 8 μg/mL) with AN2718 40 μM", "value": "could still effectively kill bacteria"},
      {"measurement": "FICI", "setting": "[2]; AN2718 in combination with Meropenem, KPC-74T", "value": 0.25},
      {"measurement": "Result", "setting": "[2]; AN2718 in combination with Meropenem, KPC-74T, from FICI", "value": "synergy (FICI≤0.5 is defined as synergy)"},
      {"measurement": "MIC", "setting": "[2]; read-out: Drug S-MIC", "value": 64, "unit": "µg/mL"},
      {"measurement": "MIC value decreased", "setting": "[2]; KPC-74T", "value": 1024, "unit": "times"},
      {"measurement": "survival rate", "setting": "[3]", "value": 20, "unit": "%"}
    ]}
  ]
}
